{
  "source": "patent US7060733B2",
  "about": "“Methods for treating pancreatitis with curcumin compounds and inhibitors of reactive oxygen species” (The Regents of the University of California, priority 2002, dated 2006)",
  "key": {"[1]": {"test_system": "rats with cerulein pancreatitis or ethanol/CCK pancreatitis", "assay": "Serum amylase and lipase in cerulein and ethanol/CCK pancreatitis models", "type": "in vivo", "conditions": "rat; for inhibition of the increase in serum amylase and lipase: curcumin 35 mg/kg/h i.v. for 6 h", "experimental": "5 μg/kg/h of Cerulein (American Peptide Co., Sunnyvale, Calif.) or vehicle control was administered to male Sprague-Dawley rats (275-350 g; Harlan, Madison, Wis.) by continuous 6-hour intravenous infusion by conventional methods known in the art. See Gukovskaya A S, et al. (1997) J. Clin. Invest. 100:1853-1862; Gukovsky I, et al. (1998) Am. J. Physiol. 275:[…]-[…]; and Zaninovic V, et al. (2000) Am. J. Physiol. 279:[…]-[…], which are herein incorporated by reference. Animals were euthanized by CO2-induced asphyxiation, and blood and the pancreas were harvested for measurements. Curcumin (Sigma Chemical, St. Louis, Mo.) was dissolved in dimethyl sulfoxide (DMSO) and administered to each animal by i.v. infusion together with cerulein at a dose of 35 mg/kg/h. Thus, during the 6-hour treatment, each animal received a total of 200 mg/kg (0.5 mmol/kg) of curcumin. Serum amylase and lipase were measured under contract using a Hitachi 707 analyzer (Antech Diagnostics, Irvine Calif.) and methods known in the art. […] Thus, curcumin inhibits […] pancreatitis. An ethanol/CCK-induced pancreatitis model as previously described was used. See Pandol S J, et al. (1999). Specifically, Sprague-Dawley rats (400-500 g; Harlan, Madison, Wis.) were given an intragastric infusion of ethanol-containing or control diet for 6 weeks followed by 6-hour infusion of a low dose (3000 pmol/kg/h) CCK-8 (Peninsula Laboratories, Belmont, Calif.). […] CCK-8 causes pancreatitis in both rats and mice by stimulating the activation of the inflammatory signals, i.e. NF-κB and AP-1, in the pancreatic acinar cell. Animals were euthanized by CO2-induced asphyxiation, and blood and the pancreas were harvested for measurements. Curcumin (Sigma Chemical, St. Louis, Mo.) was dissolved in dimethyl sulfoxide (DMSO) and administered to each animal by i.v. infusion together with CCK-8 at a dose of 35 mg/kg/h. Thus, during the 6-hour treatment, each animal received a total of 200 mg/kg (c. 0.5 mmol/kg) of curcumin. Serum amylase and lipase were measured under contract using a Hitachi 707 analyzer (Antech Diagnostics, Irvine Calif.) and methods known in the art. […] Thus, curcumin inhibits […] pancreatitis."}, "NF-κB [2]": {"test_system": "NF-κB", "assay": "EMSA for NF-κB on nuclear extracts from pancreatic tissue", "type": "in vivo, rat", "conditions": "for NF-κB activation in the pancreas: rat", "method": "Specifically, aliquots of nuclear extracts with equal amounts of protein (about 2 to about 10 mg) were mixed in 20 μl reactions with a buffer containing 10 mM HEPES (pH 7.8), 50 mM KCl, 0.1 mM EDTA, 1 mM DTT, 10% (vol/vol) glycerol, and 3 μg of poly(dI-dC).\n(§1) The samples were electrophoresed at room temperature in 0.5×TBE buffer (1× TBE: 89 mM Tris base, 89 mM boric acid, 2 mM EDTA) on a non-denaturing 4.5% polyacrylamide gel at 200 V. The gels were dried and directly analyzed in the PhosphorImager (Molecular Dynamics, Sunnyvale, Calif.).\n(§2) Nuclear protein extracts were prepared by methods known in the art. […] Briefly, samples of pancreatic tissue or isolated acini were rinsed in ice-cold PBS and homogenized in hypotonic Buffer A (20 mM β-glycerophosphate, 10 mM HEPES, pH 7.6, 1.5 mM MgCl2, 10 mM KCl, 10 mM Na2MoO4, 0.1 mM Na3VO4, 1 mM dithiothreitol (DTT), 1 mM phenylmethylsulfonyl fluoride (PMSF), 5 μg/ml each of protease inhibitors pepstatin, leupeptin, chymostatin, antipain and aprotinin). After incubating on ice for about 20 to about 25 minutes, the nonionic detergent Igepal CA-630 (Sigma, St. Louis, Mo.) was added to a final concentration of 0.3 to 0.4% (v/v), followed by an additional incubation on ice for about 1 to about 2 minutes. The crude nuclear pellet was collected by microcentrifugation for 30 seconds. The supernatant (cytosolic protein) was removed, and the nuclear pellet was resuspended in the high-salt buffer C (25% glycerol, 20 mM β-glycerophosphate, 10 mM HEPES, 1.5 mM MgCl2, 420 mM NaCl, 0.2 mM EDTA, 10 mM Na2MoO4, 0.1 mM Na3VO4, 1 mM DTT, 1 mM PMSF, 5 μg/ml each of protease inhibitors pepstatin, leupeptin, chymostatin, antipain and aprotinin. After rotating at 4° C. for up to 1 hour, nuclear membranes were pelleted by microcentrifugation for 10 minutes, and the clear supernatant (nuclear extract) was aliquoted and stored at −80° C. Protein concentration in the nuclear extract was determined by the Bio-Rad protein assay (Bio-Rad Laboratories, Hercules, Calif.)."}, "NF-κB [3]": {"test_system": "NF-κB", "assay": "Curcumin and N-acetylcysteine alone and in combination, NF-κB activation in CCK-stimulated acinar cells", "type": "cell-based, rat", "conditions": "curcumin 50 μM alone, 0.1 μM CCK", "method": "To measure the effects of curcumin compounds and ROS inhibitors, EMSAs and nuclear protein extractions were conducted as provided above. […] EMSAs for NF-κB activation were performed on nuclear proteins extracted from each sample."}, "IκBα and IκBβ": {"test_system": "IκBα and IκBβ", "assay": "Western blot of IκBα and IκBβ in cytosolic extracts from pancreatic tissue", "type": "in vivo, rat", "method": "IκBα and IκBβ levels were measured in cytosolic protein extracts from pancreatic tissue, prepared according to Example 12, by Western blot analysis using polyclonal antibodies sc-371 and sc-945, respectively (Santa Cruz Biotechnology, Santa Cruz, Calif.) using methods known in the art. […] Specifically, IκBα and IκBβ levels were measured in cytosolic protein extracts from pancreatic tissue by Western blot analysis using polyclonal antibodies sc-371 and sc-945, respectively (Santa Cruz Biotechnology, Santa Cruz, Calif.). […] Specifically, proteins in the cytosolic extract were separated by SDS-PAGE at 120 V using precast Tris-glycine gels and Mini-Cell gel apparatus (Novex, San Diego, Calif.). Separated proteins were electrophoretically transferred to polyvinylidene difluoride membrane for 2 hours at 30 V, using a Novex blot module. Nonspecific binding was blocked by overnight incubation of the membrane in 5% (wt/vol) nonfat dry milk in Tris-buffered saline (TBS, pH 7.5). Blots were then incubated for 2 hours at room temperature with primary antibodies in antibody buffer containing 1% (wt/vol) nonfat dry milk in TTBS (0.05% vol/vol Tween 20 in TBS), washed three times with TTBS, and finally incubated for 1 hour with a peroxidase-labeled secondary antibody in the antibody buffer. Blots were developed for visualization using enhanced chemiluminescence detection kit (Pierce Chemical, Rockford, Ill.)."}, "AP-1 [4]": {"test_system": "AP-1", "assay": "EMSA for AP-1 on nuclear extracts from pancreatic tissue", "type": "in vivo", "conditions": "rat", "method": "Specifically, aliquots of nuclear extracts with equal amounts of protein (about 2 to about 10 mg) were mixed in 20 μl reactions with a buffer containing 10 mM HEPES (pH 7.8), 50 mM KCl, 0.1 mM EDTA, 1 mM DTT, 10% (vol/vol) glycerol, and 3 μg of poly(dI-dC). Binding reactions were started by the addition of c. 60,000 cpm of ^32P-labeled DNA probe and allowed to proceed for about 20 to about 25 minutes at room temperature. The oligonucleotide probe for NF-κB:\n5′-[sequence] (SEQ ID NO: 2), containing phorbol ester responsive element (TRE, underlined), were annealed with their complementary strands and end-labeled using Klenow DNA polymerase I (Stratagene, La Jolla, Calif.).\nas §1, §2"}, "AP-1 [5]": {"test_system": "AP-1", "assay": "CCK-induced AP-1 activation in isolated pancreatic acinar cells (EMSA)", "type": "cell-based, rat", "method": "To confirm that the effects of curcumin occur in the pancreatic acinar cell, the effects of curcumin on the activation of NF-κB and AP-1 in vitro in CCK-stimulated pancreatic acini. Pancreatic acini were prepared from rat pancreas using the collagenase digestion method as described by Pandol S J, et al. (1982) J. Biol. Chem. 257:12024–12029, which is herein incorporated by reference, and then incubated at 37° C. in 199 medium (GIBCO, Rockville, Md.) known in the art. […] EMSAs for NF-κB and AP-1 were performed on nuclear proteins extracted from each sample as provided above. Nuclear protein extracts were prepared by methods known in the art. […] Briefly, samples of pancreatic tissue or isolated acini were rinsed in ice-cold PBS and homogenized in hypotonic Buffer A (20 mM β-glycerophosphate, 10 mM HEPES, pH 7.6, 1.5 mM MgCl2, 10 mM KCl, 10 mM Na2MoO4, 0.1 mM Na3VO4, 1 mM dithiothreitol (DTT), 1 mM phenylmethylsulfonyl fluoride (PMSF), 5 μg/ml each of protease inhibitors pepstatin, leupeptin, chymostatin, antipain and aprotinin). After incubating on ice for about 20 to about 25 minutes, the nonionic detergent Igepal CA-630 (Sigma, St. Louis, Mo.) was added to a final concentration of 0.3 to 0.4% (v/v), followed by an additional incubation on ice for about 1 to about 2 minutes. The crude nuclear pellet was collected by microcentrifugation for 30 seconds. The supernatant (cytosolic protein) was removed, and the nuclear pellet was resuspended in the high-salt buffer C (25% glycerol, 20 mM β-glycerophosphate, 10 mM HEPES, 1.5 mM MgCl2, 420 mM NaCl, 0.2 mM EDTA, 10 mM Na2MoO4, 0.1 mM Na3VO4, 1 mM DTT, 1 mM PMSF, 5 μg/ml each of protease inhibitors pepstatin, leupeptin, chymostatin, antipain and aprotinin. After rotating at 4° C. for up to 1 hour, nuclear membranes were pelleted by microcentrifugation for 10 minutes, and the clear supernatant (nuclear extract) was aliquoted and stored at −80° C. Protein concentration in the nuclear extract was determined by the Bio-Rad protein assay (Bio-Rad Laboratories, Hercules, Calif.)."}, "CCK receptor": {"target": "T1, CCK receptor (Rattus norvegicus, UniProt P30551)", "T1 construct": "from tissue; host or cells: living rat, pancreas (acinar cells)", "T1 sequence (P30551 1-444)": "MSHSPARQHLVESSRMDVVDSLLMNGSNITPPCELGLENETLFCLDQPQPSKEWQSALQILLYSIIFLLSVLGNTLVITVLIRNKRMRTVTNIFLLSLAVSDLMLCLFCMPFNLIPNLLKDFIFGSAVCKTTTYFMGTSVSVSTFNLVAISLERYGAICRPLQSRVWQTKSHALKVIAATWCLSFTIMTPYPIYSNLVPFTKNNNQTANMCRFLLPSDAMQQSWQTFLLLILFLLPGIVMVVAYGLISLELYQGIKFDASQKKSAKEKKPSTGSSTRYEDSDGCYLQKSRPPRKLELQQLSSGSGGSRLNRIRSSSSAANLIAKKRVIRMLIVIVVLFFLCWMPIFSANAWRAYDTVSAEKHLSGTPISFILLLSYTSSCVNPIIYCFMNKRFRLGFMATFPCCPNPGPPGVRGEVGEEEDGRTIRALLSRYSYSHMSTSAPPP", "assay": "In vivo pancreatic secretion assay", "experimental": "To rule out the possibility that the effect of curcumin was through inhibition of the action of cerulein or CCK-8 on CCK receptor activation, the effect of pancreatic secretion was tested.\nPancreatic secretion in test rats was measured in vivo by methods known in the art. See Gukovskaya A S, et al. (2002). Briefly, biliopancreatic secretion was allowed to drain freely for 30 minutes before initiation of the experiment. Then secretion was collected in tubes in 10-minute fractions to determine the basal amylase output, after which 0.25 μg/kg cerulein was given as an i.v. bolus and collection continued for 40 minutes in a similar manner. Collection volumes were measured by weigh, and the amylase output was calculated by determining amylase concentration in the collected fractions. The mean amylase output obtained from two consecutive 10-minute fractions after the stabilization period was taken as the basal secretion and considered as 100%. The results were expressed as percentage increase over basal amylase output 40 minutes after cerulein or vehicle infusion."}, "[6]": {"test_system": "IL-6, TNF-α, KC and iNOS mRNA", "assay": "RT-PCR for pancreatic mRNA expression of inflammatory molecules", "type": "in vivo", "conditions": "rat", "experimental": "To determine whether the effects of curcumin on NF-κB and AP-1 activation translated into changes in the expression of inflammatory molecules, the effect of curcumin on pancreatic mRNA expression of several cytokines and other inflammatory molecules were measured by methods known in the art. See Blinman T A, et al. (2000); Gukovskaya A S, et al. (1999); Gukovsky I, et al. (1998); Pandol S J, et al. (1999); Vaquero E, et al. (2001); and Zaninovic V, et al. (2000). Briefly, total RNA was obtained from pancreatic tissue with TRI reagent (Molecular Research Center, Cincinnati, Ohio) and its quality was verified by ethidium bromide staining of rRNA bands on a denaturing agarose gel. RNA was reverse-transcribed with the SuperScript II preamplification kit (GIBCO-BRL, Rockville, Md.) and subjected to PCR with the rat gene specific, intron-spanning primers set forth in Target sequences were amplified at 56° C. using the same amount of cDNA for all primer sets. The RT-PCR products were all of expected size, and their identity was confirmed by direct sequencing. Negative controls were performed by omitting the RT step or cDNA template from the PCR amplification. The cycle number was adjusted between 22 (for the housekeeping ARP gene) and 36 cycles (for iNOS) in order to yield visible products within the linear amplification range. […]"}},
  "note": "Entries after “also recorded” stand apart in the source; their conditions may differ.",
  "data": [
    {"smiles": "COc1cc(/C=C/C(=O)CC(=O)/C=C/c2ccc(O)c(OC)c2)ccc1O", "note": "[curcumin]", "values": [
      {"measurement": "inhibition of the increase in serum amylase and lipase", "setting": "[1]; cerulein pancreatitis", "value": "approximately 50%"},
      {"measurement": "serum amylase versus pancreatitis without curcumin", "setting": "[1]; cerulein pancreatitis, p<0.05", "value": "significantly inhibited; also recorded: significantly lower"},
      {"measurement": "serum lipase versus pancreatitis without curcumin", "setting": "[1]; cerulein pancreatitis, p<0.05", "value": "significantly inhibited; also recorded: significantly lower"},
      {"measurement": "inhibition of the increase in serum amylase and lipase", "setting": "[1]; ethanol/CCK pancreatitis", "value": "approximately 50%"},
      {"measurement": "serum amylase and lipase versus pancreatitis without curcumin", "setting": "[1]; ethanol/CCK pancreatitis, p<0.05", "value": "significantly inhibited; also recorded: significantly lower"},
      {"measurement": "NF-κB activation in the pancreas", "setting": "NF-κB [2]; cerulein pancreatitis", "value": "inhibits; also recorded: attenuated"},
      {"measurement": "NF-κB activity in the pancreas of control rats", "setting": "NF-κB [2]; control (vehicle-infused) rats treated with curcumin", "value": "Virtually no NF-κB activity was detected"},
      {"measurement": "NF-κB activation in the pancreas", "setting": "NF-κB [2]; ethanol/CCK pancreatitis", "value": "inhibits"},
      {"measurement": "inhibition of NF-κB activation in CCK-stimulated acinar cells", "setting": "NF-κB [3]", "value": "very little inhibition"},
      {"measurement": "decrease (degradation) of IκBα and IκBβ", "setting": "IκBα and IκBβ; cerulein pancreatitis, rat", "value": "prevented"},
      {"measurement": "IκBα and IκBβ levels in control animals", "setting": "IκBα and IκBβ; control animals", "value": "did not change"},
      {"measurement": "IκB degradation", "setting": "IκBα and IκBβ; ethanol/CCK pancreatitis, rat", "value": "prevented; also recorded: inhibits"},
      {"measurement": "AP-1 activation in the pancreas", "setting": "AP-1 [4]; cerulein pancreatitis", "value": "markedly attenuated; also recorded: inhibited"},
      {"measurement": "AP-1 activation in the pancreas", "setting": "AP-1 [4]; ethanol/CCK pancreatitis", "value": "almost completely blocked; also recorded: inhibited"},
      {"measurement": "CCK-induced activation of AP-1 in isolated acinar cells", "setting": "AP-1 [5]; 1 h with compound, then 0.1 μM CCK 30 min", "value": "inhibits; also recorded: abolished; also recorded: blocked; also recorded: attenuates"},
      {"measurement": "basal AP-1 binding activity in acinar cells", "setting": "AP-1 [5]; isolated acinar cells without CCK", "value": "inhibited"},
      {"measurement": "effect on cerulein/CCK-induced pancreatic secretion in vivo", "setting": "CCK receptor; rat, versus without curcumin", "value": "not statistically different; also recorded: did not appear to have an effect"},
      {"measurement": "cerulein-induced amylase secretion, of the basal amylase output", "setting": "CCK receptor; rats treated with curcumin, 0.25 μg/kg cerulein i.v. bolus, 40 min, n=4", "value": "1000±37", "unit": "%"},
      {"measurement": "pancreatic expression of IL-6, TNF-α, KC and iNOS", "setting": "[6]; cerulein pancreatitis", "value": "markedly inhibited; also recorded: attenuated"},
      {"measurement": "pancreatic expression of IL-6, TNF-α, KC and iNOS", "setting": "[6]; ethanol/CCK pancreatitis", "value": "markedly inhibited; also recorded: attenuated"}
    ]}
  ]
}
